Values quoted from earlier work in US12365919B2, “Serum-free suspension system for lentiviral production” (priority 2016, dated 2025).

Test system: lentiviral vector production
Settings: serum-based culture system; worked only ~50% as well as caffeine

Structure (SMILES): CCCC(=O)[O-].[Na+] [sodium butyrate]
- lentiviral vector production enhancement, relative to caffeine: ~50%
